Here are results for four compounds from patent publication US20150209379A1, “TREATMENT OF PROSTATE CANCER AND HEMATOLOGIC NEOPLASMS” (THOMAS JEFFERSON UNIVERSITY, priority 2012, published 2015).

Assay [1] concerns CWR22Rv1 prostate cancer cells. Kind of assay: Cell viability, MTS assay, CWR22Rv1 prostate cancer cells. In kind it is cell-based, human. As to conditions: CWR22Rv1, 72 h, 3.1, 6.3, 12.5, 25 and 50 μM, vs control compound C5. The procedure: Exponentially growing CWR22Rvl prostate cancer cells were treated with Compound 1, Compound 2 or the control compound C5 for 72 h at 3.1, 6.3. 12.5, 25 and 50 μM concentrations. The cell viability was assessed by MTS (3-(4,5-dimethylthiazolyl-2)-2,5-diphenyl-tetrazolium bromide) metabolic activity assay (CellTiter 96® AQueous Assay kit).
(§1) Exponentially growing CWR22Rv1 prostate cancer cells, K562 leukemia cells and imatinib-sensitive KCL22S and imatinib-resistant KCL22R chronic myeloid leukemia cells were treated with NBPP or the control compound C5 for 72 h at 3.1, 6.3. 12.5, 25 and 50 μM concentrations. The cell viability was assessed by MTS (3-(4,5-dimethylthiazolyl-2)-2,5-diphenyl-tetrazolium bromide) metabolic activity assay (CellTiter 96® AQueous Assay kit).
Exponentially growing CWR22Rvl prostate cancer cells were treated with N6BA or the control compound C5 for 72 h at 3.1, 6.3. 12.5, 25 and 50 μM concentrations. The cell viability was assessed by MTS (3-(4,5-dimethylthiazolyl-2)-2,5-diphenyl-tetrazolium bromide) metabolic activity assay (CellTiter 96® AQueous Assay kit).
(In general: Tetrazolium dyes change colour on reduction, which living cells bring about.)

Assay [2] deals with T1, Stat5a (Homo sapiens, UniProt P42229).
T1 sequence (P42229 1-794): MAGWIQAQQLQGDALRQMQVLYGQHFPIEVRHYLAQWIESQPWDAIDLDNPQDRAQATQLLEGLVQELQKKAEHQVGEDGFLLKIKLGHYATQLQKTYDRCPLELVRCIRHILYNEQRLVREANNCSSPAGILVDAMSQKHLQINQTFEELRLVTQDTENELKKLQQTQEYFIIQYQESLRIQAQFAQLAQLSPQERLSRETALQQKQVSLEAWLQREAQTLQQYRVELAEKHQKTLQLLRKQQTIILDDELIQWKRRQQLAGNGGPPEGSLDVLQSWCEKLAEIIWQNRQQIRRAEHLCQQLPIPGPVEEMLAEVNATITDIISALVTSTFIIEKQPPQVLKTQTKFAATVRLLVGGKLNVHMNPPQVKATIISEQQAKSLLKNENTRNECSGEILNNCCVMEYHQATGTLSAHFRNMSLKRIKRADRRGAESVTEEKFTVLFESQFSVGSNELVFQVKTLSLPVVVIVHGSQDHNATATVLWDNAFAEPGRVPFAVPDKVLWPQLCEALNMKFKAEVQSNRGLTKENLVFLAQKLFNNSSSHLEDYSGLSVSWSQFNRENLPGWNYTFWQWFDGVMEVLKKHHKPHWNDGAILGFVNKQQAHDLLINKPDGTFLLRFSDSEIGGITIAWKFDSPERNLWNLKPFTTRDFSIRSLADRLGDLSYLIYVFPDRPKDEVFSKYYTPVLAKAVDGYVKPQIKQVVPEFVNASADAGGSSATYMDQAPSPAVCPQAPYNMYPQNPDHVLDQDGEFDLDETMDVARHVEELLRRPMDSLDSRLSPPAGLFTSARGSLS
As to the kind of experiment: Stat5a transcriptional activity, beta-casein promoter luciferase reporter gene assay in PC-3 cells. The format is cell-based. Also noted: expressed in transfected cells; host or cells: PC-3 human prostate cancer cells. The following applies: 1 hour pretreatment, then 10 nM hPrl 16 hours. The procedure:
Cells of the human prostate cell line PC-3 were plated into 96-well plate at the density of 2×10^5 per well. After 24 hours of plating, cells were transiently co-transfected using FuGENE6 (Roche) with 0.25 μg of each of pStat5a, pPrlR (prolactin receptor) plasmids, 0.5 μg of pBeta-casein-luc and 0.025 μg of pRL-TK (Renilla luciferase) plasmids as an internal control. After another 24 hours of transfection, the cells were starved in serum-free medium for 8 hours, pretreated with (2R,3R,4S,5R)-2-(6-(3,4-dihydroisoquinolin-2(1H)-yl)-9H-purin-9-yl)-5-(hydroxymethyl)tetrahydrofuran-3,4-diol (Compound 1) or (2R,3S,4R,5R)-2-(hydroxymethyl)-5-(6-(2-phenylhydrazinyl)-9H-purin-9-yl)tetrahydrofuran-3,4-diol (Compound 2), for 1 hour, and then stimulated with 10 nM human prolactin (hPrl) in the serum-free medium for additional 16 hours. The lysates were assayed for firefly and Renilla luciferase activities using the Dual-Luciferase reporter assay system (Promega). The firefly luciferase activity was normalized to the Renilla luciferase activity of the same sample, and the mean was calculated from the parallels. From the mean values of each independent run, the overall mean and its standard deviation (S.D.) were calculated.
(§2) Cells of the human prostate cell line PC-3 were plated into 96-well plate at the density of 2×10^5 per well. […] The firefly luciferase activity was normalized to the Renilla luciferase activity of the same sample, and the mean was calculated from the parallels. From the mean values of each independent run, the overall mean and its standard deviation (S.D.) were calculated.
as §2
In general terms: Reporter assays use an easily measured gene product as a stand-in for the process of interest.

Assay [3] concerns K562 human chronic myeloid leukemia cells. As to the kind of experiment: Cell viability, MTS assay, K562 chronic myeloid leukemia cells. In kind it is cell-based. As to conditions: K562, 72 h, 3.1, 6.3, 12.5, 25 and 50 μM, vs control compound C5. The procedure:
Exponentially growing K562 human chronic myeloid leukemia cells were treated with Compound 1, Compound 2 or the control compound C5 for 72 h at 3.1, 6.3. 12.5, 25 and 50 μM concentrations. The cell viability was assessed by MTS (3-(4,5-dimethylthiazolyl-2)-2,5-diphenyl-tetrazolium bromide) metabolic activity assay (CellTiter 96® AQueous Assay kit).
as §1

Consider `OC[C@H]1O[C@@H](n2cnc3c(N4CCc5ccccc5C4)ncnc32)[C@H](O)[C@@H]1O` [Compound 1, (2R,3R,4S,5R)-2-(6-(3,4-Dihydroisoquinolin-2(1H)-yl)-9H-purin-9-yl)-5-(hydroxymethyl)tetrahydrofuran-3,4-diol], for which the “number of viable cells” value in assay [1] is “decreased the number of viable prostate cancer cells compared to the control compound”; in assay [3], “decreased the number of viable leukemic cells compared to the control compound”. In addition, the “effect on transcriptional activity of Stat5a” value (from here on “effect”) in assay [2] is on record as “effectively block the transcriptional activity of Stat5a”.
For the compound `OC[C@H]1O[C@@H](n2cnc3c(NNc4ccccc4)ncnc32)[C@H](O)[C@@H]1O` [Compound 2, (2R,3S,4R,5R)-2-(hydroxymethyl)-5-(6-(2-phenylhydrazinyl)-9H-purin-9-yl)tetrahydrofuran-3,4-diol], the “number of viable cells” value in assay [1] is recorded as “decreased the number of viable prostate cancer cells compared to the control compound”; in assay [3], “decreased the number of viable leukemic cells compared to the control compound”. Besides, the “effect” value in assay [2] was “effectively block the transcriptional activity of Stat5a”.
On to `OC[C@H]1O[C@@H](n2cnc3c(NCc4ccccc4)ncnc32)[C@H](O)[C@@H]1O` [Compound N6BA, N^6-benzyladenosine], for which the “number of viable cells” value in assay [1] is reported as “decreased the number of viable prostate cancer cells”. The “effect” value in assay [2] is “inhibits transcriptional activity of Stat5”.
As to `OC[C@H]1O[C@@H](n2ccc3c(NCc4ccccc4)ncnc32)[C@H](O)[C@@H]1O` [NBPP, N-(phenylmethyl)-7-β-D-ribofuranosyl-7H-pyrrolo[2,3-d]pyrimidin-4-amine], the “number of viable cells” value in assay [1] is “decreased the number of viable prostate cancer cells”; in assay [3], “decreased the number of viable K562 cells”.
